Experimental data reported in US7410998B2, “Inhibitors of NADH:ubiquinone oxidoreductase” (The Scripps Research Institute, priority 2000, dated 2008).

Molecular target: NADH:ubiquinone oxidoreductase (Complex I) (Bos taurus, UniProt P03887+P17694+P42026)
Assay: inhibitory potency for NADH:ubiquinone oxidoreductase activity in vitro using bovine heart electron transport particles
Type: biochemical
Details: bovine heart electron transport particles
Method: This primary library was screened for inhibitory potency against NADH:ubiquinone oxidoreductase activity as described below. […] As described below, a series of focused libraries were then synthesized using a combination of solid and solution phase chemistry in an attempt to evaluate particular structural sub-regions (denoted I-IV in FIG. 9) of the lead structure, thus allowing structure activity relationships to be developed.
(§1) SAR optimization was carried out on each of the four regions (I-IV) of interest guided by the inhibitory potency for NADH:ubiquinone oxidoreductase activity in vitro using bovine heart electron transport particles (see Singer (Singer, T. P. (1974). In Methods of Biochemical Analysis (Glick, D. ed., Wiley New York), 22, pp. 123-175) for details).
as §1, with “FIG. 15 is a graphical summary of structure activity trends observed for benzopyran-based inhibitors of NADH:ubiquinone oxidoreductase. SAR” for “SAR”, “T.P.” for “T. P.”

NADH:ubiquinone oxidoreductase (Complex I), sequence (P03887 whole entry): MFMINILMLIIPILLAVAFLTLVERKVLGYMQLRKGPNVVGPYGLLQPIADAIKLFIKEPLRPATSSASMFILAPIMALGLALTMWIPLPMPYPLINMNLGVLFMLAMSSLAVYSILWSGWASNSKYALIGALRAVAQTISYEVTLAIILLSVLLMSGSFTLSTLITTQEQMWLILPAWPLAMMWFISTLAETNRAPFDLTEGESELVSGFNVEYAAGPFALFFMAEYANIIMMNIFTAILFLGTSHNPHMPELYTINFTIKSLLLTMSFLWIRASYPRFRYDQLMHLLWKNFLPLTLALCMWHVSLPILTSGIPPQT
NADH:ubiquinone oxidoreductase (Complex I), sequence (P42026 38-216): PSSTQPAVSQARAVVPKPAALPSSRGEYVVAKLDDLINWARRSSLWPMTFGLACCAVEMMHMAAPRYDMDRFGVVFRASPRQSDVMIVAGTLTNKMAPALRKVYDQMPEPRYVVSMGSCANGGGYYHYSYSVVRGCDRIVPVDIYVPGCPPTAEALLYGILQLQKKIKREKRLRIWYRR
NADH:ubiquinone oxidoreductase (Complex I), sequence (P17694 34-463): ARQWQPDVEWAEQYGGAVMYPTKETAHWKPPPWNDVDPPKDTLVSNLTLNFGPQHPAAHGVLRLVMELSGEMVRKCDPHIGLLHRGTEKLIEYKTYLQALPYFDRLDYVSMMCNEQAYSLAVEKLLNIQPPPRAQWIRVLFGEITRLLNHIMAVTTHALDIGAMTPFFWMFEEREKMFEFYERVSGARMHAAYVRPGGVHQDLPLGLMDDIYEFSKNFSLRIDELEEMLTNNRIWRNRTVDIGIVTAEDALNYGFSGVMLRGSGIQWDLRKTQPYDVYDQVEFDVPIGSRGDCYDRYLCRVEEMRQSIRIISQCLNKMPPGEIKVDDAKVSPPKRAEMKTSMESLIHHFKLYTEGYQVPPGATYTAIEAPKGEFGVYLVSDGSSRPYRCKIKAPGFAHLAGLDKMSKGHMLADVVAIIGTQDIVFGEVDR

SMILES | IC50 [nM]
COc1cc(CSc2ccc3c(c2)C=CC(C)(C)O3)cc(OC)c1OC [Compound 178] | 43
COc1cc(COC(=O)c2ccc3c(c2)CCC(C)(C)O3)cc(OC)c1OC [Compound 140] | 53
COc1cc(CC(=C(Cl)Cl)c2ccc3c(c2)CCC(C)(C)O3)cc(OC)c1OC [Compound 168] | 2700
COc1cc(CC(=C(F)F)c2ccc3c(c2)CCC(C)(C)O3)cc(OC)c1OC [Compound 169] | 48
COc1cc(CC(=O)c2ccc3c(c2)CCC(C)(C)O3)cc(OC)c1OC [Compound 165] | 24
C=C(Cc1cc(OC)c(OC)c(OC)c1)c1ccc2c(c1)CCC(C)(C)O2 [Compound 167] | 18
COc1ccc(COC(=O)c2ccc3c(c2)C=CC(C)(C)O3)cc1OC [Compound 42] | 220
COc1cc(CC(=O)c2ccc3c(c2)C=CC(C)(C)O3)cc(OC)c1OC [Compound 158] | 39
C=C(Cc1cc(OC)c(OC)c(OC)c1)c1ccc2c(c1)C=CC(C)(C)O2 [Compound 163] | 19
COc1cc(COC(=O)c2ccc3c(c2)C=CC(C)(C)O3)cc(OC)c1OC [Compound 55] | 55

Same assay, conditions: relative to parent/lead compound

SMILES | inhibitory activity
COc1cc(CC(=O)c2ccc3c(c2)CCC(C)(C)O3)cc(OC)c1OC [Compound 165] | almost twice as active as the parent olefin

System: Complex I
Assay: not given
Details: natural products from Cubé resin; cited from earlier work

SMILES | IC50 [nM]
COc1cc2c(cc1OC)[C@@H]1C(=O)c3ccc4c(c3O[C@@H]1CO2)C=CC(C)(C)O4 [deguelin] | 6.9
COc1cc(OC)c(C2COc3c(ccc4c3C=CC(C)(C)O4)C2=O)cc1OC (centres unmarked) [lonchocarpusone] | 3300

System: Complex I
Assay: Complex I activity in in vitro assays (literature, Fang/Casida)
Type: biochemical
Details: ratio of IC50 values
From the text: Novel lead compounds were identified through the screening of natural product-like combinatorial libraries. Separation of the constituents of this resin provided the major components rotenone (1, FIG. 2) and deguelin (7, FIG. 3) along with minor constituents, including dehydrodeguelin (8), oxadehydrodeguelin (9), lonchocarpusone (10), 4-hydroxylonchocarpene (11), 4-hydroxy-3-methoxylonchocarpene (12), stilbenes 13-15, and isoflavones 16-18 (FIG. 3) among others. […] Despite the diversity in these bridging units, all of the compounds (7-18) inhibited Complex I activity in in vitro assays (Fang, N.; Casida, J. E. J. Nat. Prod. 1999, 62, 205-210; Fang, N.; et al. Chem. Res. Toxicol. 1997, 10, 853-858). […] Given this effect, it was envisioned that screening a benzopyran-based combinatorial library wherein this “bridge” unit was varied (i.e. structure 19, FIG. 3) might lead to the identification of interesting structure activity relationships (SAR), and potentially to new lead compounds in this series.

SMILES | fold more active than lonchocarpusone [fold]
COc1cc2c(cc1OC)[C@@H]1C(=O)c3ccc4c(c3O[C@@H]1CO2)C=CC(C)(C)O4 [deguelin] | ~500
